Experimental data published in US20250289780A1, “N,N'-DIPHENYL-4,4'-BIPHENYLDICARBOXAMIDE ANALOGS AND THEIR USE IN CANCER TREATMENT” (Board of Regents, The University of Texas System, priority 2024, published 2025).
Entries after “also recorded” stand apart in the source; their conditions may differ.

How the values were obtained:
[1] = target: Mcl-1 (Homo sapiens, UniProt Q07820); assay: Fluorescence polarization (FP) binding assay, Mcl-1
Experimental: (§1) FIGS. 3A-3B show binding affinity to Bcl-xL, Bcl-2 and Mcl-1 determined by FP assay. FIG. 3A: compounds 1-9 mimicking BH3 peptides of proapoptotic proteins (scaffold I). FIG. 3B: Bim-mimicking compounds 10-16 derived from scaffolds II-VIII.
(§2) Their binding affinities on Bcl-xL, Bcl-2, and Mcl-1 were determined by fluorescence polarization (FP) assays (FIG. 3A). […] The role of carboxylic acids at both ends of compound 1 was also studied.

[2] = target: Bcl-xL (Homo sapiens, UniProt Q07817); assay: Fluorescence polarization (FP) binding assay, Bcl-xL
Sequence of Bcl-xL (Q07817 whole entry): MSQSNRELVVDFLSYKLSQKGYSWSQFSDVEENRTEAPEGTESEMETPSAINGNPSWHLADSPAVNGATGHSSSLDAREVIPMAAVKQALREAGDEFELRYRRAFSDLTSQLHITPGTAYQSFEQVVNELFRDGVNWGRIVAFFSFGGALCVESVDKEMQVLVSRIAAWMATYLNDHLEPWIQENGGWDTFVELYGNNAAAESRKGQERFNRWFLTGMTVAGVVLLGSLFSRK
Experimental: as §1, §2

[3] = target: Bcl-2 (Homo sapiens, UniProt P10415); assay: Fluorescence polarization (FP) binding assay, Bcl-2
Sequence of Bcl-2 (P10415 whole entry): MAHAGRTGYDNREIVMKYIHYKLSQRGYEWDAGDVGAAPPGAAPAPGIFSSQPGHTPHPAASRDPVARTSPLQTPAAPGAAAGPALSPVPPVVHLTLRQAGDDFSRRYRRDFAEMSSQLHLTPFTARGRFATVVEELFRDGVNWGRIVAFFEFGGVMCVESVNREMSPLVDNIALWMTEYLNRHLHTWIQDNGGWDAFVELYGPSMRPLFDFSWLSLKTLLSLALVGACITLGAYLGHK
Experimental: as §1, §2

[4] = system: PC3 cells; assay: Mitochondrial membrane depolarization, JC-1 staining; type: cell-based
Experimental: FIGS. 5A-5F show cellular activity of mimetics 1, 14, and 23. FIG. 5A: effect of mimetics on the interaction between Bak and antiapoptotic proteins. PC3 cells were incubated in the presence or absence of mimetics (10 μM) for 24 h and cell lysates were analyzed by immunoprecipitation followed by western blotting. FIG. 5B: mitochondrial membrane depolarization by mimetics. PC3 cells that were treated with mimetics, ABT737 or MIM1 were stained with JC-1 dye and analyzed for change in red to green fluorescence intensity ratio of JC-1 dye. FIG. 5C: activation of caspase-3/-9 by mimetics. PC3 cells were treated with different concentrations of mimetics, ABT737, and MIM1 for 24 h and activities of caspase-3/-9 were measured using caspase-specific colorimetric assay kits. FIG. 5D: downregulation of Mcl-1 by siRNA. PC3 cells were transfected with Mcl-1 siRNA (30 μmol) or control siRNA (30 μmol) for 24 h and cell lysates were analyzed by western blotting. […] PC3 cells were treated with mimetics (10 μM) or MIM1 (10 μM) for 24 h and cell viability was determined using MTT assay.
These compounds were examined for their capabilities of inducing apoptosis. […] The formation of pores on the outer mitochondrial membrane and the resulting change in mitochondrial membrane potential were determined by JC-1 staining. […] The anti-proliferative activity was also evaluated using MTT assay in prostate cancer cells.

[5] = target: T1, interaction of Bak with Mcl-1 (Homo sapiens, UniProt Q07820); assay: Co-immunoprecipitation in PC3 cells, Bak/Mcl-1; type: cell-based; conditions: 10 μM, 24 h, immunoprecipitation and western blotting
T1 construct: endogenous in cells; host or cells: PC3 cells
T1 sequence (Q07820 whole entry): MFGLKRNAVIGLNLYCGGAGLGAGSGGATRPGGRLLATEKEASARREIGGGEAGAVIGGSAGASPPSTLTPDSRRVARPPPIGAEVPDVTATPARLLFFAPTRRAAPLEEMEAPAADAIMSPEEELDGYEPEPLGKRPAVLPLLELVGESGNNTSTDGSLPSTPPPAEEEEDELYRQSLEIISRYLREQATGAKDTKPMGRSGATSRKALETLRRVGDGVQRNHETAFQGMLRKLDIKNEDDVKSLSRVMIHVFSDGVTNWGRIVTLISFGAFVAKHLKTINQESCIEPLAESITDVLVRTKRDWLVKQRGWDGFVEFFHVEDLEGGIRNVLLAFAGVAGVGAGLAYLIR
Experimental: (§3) FIGS. 5A-5F show cellular activity of mimetics 1, 14, and 23. FIG. 5A: effect of mimetics on the interaction between Bak and antiapoptotic proteins. PC3 cells were incubated in the presence or absence of mimetics (10 μM) for 24 h and cell lysates were analyzed by immunoprecipitation followed by western blotting. FIG. 5B: mitochondrial membrane depolarization by mimetics. PC3 cells that were treated with mimetics, ABT737 or MIM1 were stained with JC-1 dye and analyzed for change in red to green fluorescence intensity ratio of JC-1 dye. FIG. 5C: activation of caspase-3/-9 by mimetics. PC3 cells were treated with different concentrations of mimetics, ABT737, and MIM1 for 24 h and activities of caspase-3/-9 were measured using caspase-specific colorimetric assay kits. FIG. 5D: downregulation of Mcl-1 by siRNA. PC3 cells were transfected with Mcl-1 siRNA (30 μmol) or control siRNA (30 μmol) for 24 h and cell lysates were analyzed by western blotting. FIG. 5E: effect of Mcl-1 knockdown on mimetics-induced caspase activation. Same as for C except for the use of Mcl-1 knockdown PC3 cells. FIG. 5F: effect of Mcl-1 knockdown on mimetics-induced cell growth. PC3 cells were treated with mimetics (10 μM) or MIM1 (10 μM) for 24 h and cell viability was determined using MTT assay. […]

[6] = system: PC3 cells; assay: MTT anti-proliferative assay, PC3; type: cell-based; conditions: for cell growth inhibition: 10 μM, 24 h, MTT
Experimental: (§4) FIGS. 5A-5F show cellular activity of mimetics 1, 14, and 23. FIG. 5A: effect of mimetics on the interaction between Bak and antiapoptotic proteins. PC3 cells were incubated in the presence or absence of mimetics (10 μM) for 24 h and cell lysates were analyzed by immunoprecipitation followed by western blotting. FIG. 5B: mitochondrial membrane depolarization by mimetics. PC3 cells that were treated with mimetics, ABT737 or MIM1 were stained with JC-1 dye and analyzed for change in red to green fluorescence intensity ratio of JC-1 dye. FIG. 5C: activation of caspase-3/-9 by mimetics. PC3 cells were treated with different concentrations of mimetics, ABT737, and MIM1 for 24 h and activities of caspase-3/-9 were measured using caspase-specific colorimetric assay kits. FIG. 5D: downregulation of Mcl-1 by siRNA. PC3 cells were transfected with Mcl-1 siRNA (30 μmol) or control siRNA (30 μmol) for 24 h and cell lysates were analyzed by western blotting. FIG. 5E: effect of Mcl-1 knockdown on mimetics-induced caspase activation. Same as for C except for the use of Mcl-1 knockdown PC3 cells. FIG. 5F: effect of Mcl-1 knockdown on mimetics-induced cell growth. PC3 cells were treated with mimetics (10 μM) or MIM1 (10 μM) for 24 h and cell viability was determined using MTT assay.
(§5) These compounds were examined for their capabilities of inducing apoptosis. When effectors are released from anti-apoptotic proteins, they form pores on the outer mitochondrial membrane, leading to mitochondrial outer membrane permeabilization (MOMP) and cytochrome c release which promote caspase activation. The formation of pores on the outer mitochondrial membrane and the resulting change in mitochondrial membrane potential were determined by JC-1 staining. […] The anti-proliferative activity was also evaluated using MTT assay in prostate cancer cells.
(§6) Its specificity to Mcl-1 on prostate cancer cells with Mcl-1 silenced by siRNA (FIG. 5D) was further investigated. Compound 23 induced up to 3-fold increase in caspase-3/-9 activity in untransfected and control-transfected PC3 cells. Knockdown of Mcl-1, however, decreased the M161-induced caspase activity to the basal level (FIG. 5E). In MTT assay, 23 inhibited cell growth by 64% and 62% in untransfected and control-transfected PC3 cells, respectively.

[7] = system: DU145 cells; assay: MTT anti-proliferative assay, DU145; type: cell-based; conditions: Homo sapiens, DU-145, read-out: IC50, cell growth
Experimental: as §5

[8] = system: LNCaP cells; assay: MTT anti-proliferative assay, LNCaP; type: cell-based; conditions: Homo sapiens, read-out: IC50, cell growth
Experimental: as §5

[9] = target: T2, interaction of Bak with Bcl-xL (Homo sapiens, UniProt Q07817); assay: Co-immunoprecipitation in PC3 cells, Bak/Bcl-xL; type: cell-based; conditions: 10 μM, 24 h, immunoprecipitation and western blotting
T2 construct: endogenous in cells; host or cells: PC3 cells
T2 sequence (Q07817 whole entry): as the sequence (Q07817 whole entry) above
Experimental: as §3

[10] = target: T3, interaction of Bak with Bcl-2 (Homo sapiens, UniProt P10415); assay: Co-immunoprecipitation in PC3 cells, Bak/Bcl-2; type: cell-based; conditions: 10 μM, 24 h, immunoprecipitation and western blotting
T3 construct: endogenous in cells; host or cells: PC3 cells
T3 sequence (P10415 whole entry): as the sequence (P10415 whole entry) above
Experimental: as §3

[11] = system: caspase-3/-9; assay: Caspase-3/-9 colorimetric activity assay in PC3 cells; type: cell-based; conditions: for caspase-9/-3 activity (in words): PC3 cells, different concentrations, 24 h
Experimental: as §4, §5, §6

Sequence of Mcl-1 (Q07820 whole entry): as the sequence (Q07820 whole entry) above

| binding affinity to Mcl-1 (in words) [1] | binding affinity to Bcl-xL (in words) [2] | binding affinity to Bcl-2 (in words) [3] | Compound | further results |
| --- | --- | --- | --- | --- |
| negligible binding | negligible binding | – | CCC(C)Oc1cc(C(=O)O)ccc1NC(=O)c1ccc(-c2ccc(C(=O)Nc3ccc(C(=O)O)cc3OC(C)CC)c(OC(C)CC)c2)cc1OCCC(C)C (stereo not shown) [Compound 20] | IC50 [3]: 340 nM |
| – | selective affinity only to Bcl-xL | – | CCC(C)COc1cc(-c2ccc(C(=O)Nc3ccc(C(=O)O)cc3OC(C)CC)c(OC(C)CC)c2)ccc1C(=O)Nc1ccc(C(=O)O)cc1OCc1ccccc1 (stereo not shown) [Compound 22] | IC50 [2]: 650 nM |
| – | – | – | CCC(C)COc1cc(-c2ccc(C(=O)Nc3ccc(C(=O)O)cc3OC(C)CC)c(OCCC(C)C)c2)ccc1C(=O)Nc1ccc(C(=O)O)cc1OCc1ccccc1 (stereo not shown) [Compound 1, 3-(Benzyloxy)-4-(4′-((2-(sec-butoxy)-4-carboxyphenyl)carbamoyl)-3′-(isopentyloxy)-3-(2-methylbutoxy)-[1,1′-biphenyl]-4-carboxamido)benzoic acid] | red to green fluorescence intensity ratio of JC-1 dye [4]: significantly reduced; disruption of the interaction of Bak with Mcl-1 [5]: disrupted the interaction; IC50 [1]: 140 to 230 nM; IC50 [2]: 140 to 230 nM; IC50 ([6]; Homo sapiens, PC-3, PC3, MTT assay, read-out: IC50, cell growth): 2870 to 9670 nM; IC50 [7]: 2870 to 9670 nM; IC50 [8]: 2870 to 9670 nM; disruption of the interaction of Bak with Bcl-xL [9]: disrupted the interaction; disruption of the interaction of Bak with Bcl-2 [10]: disrupted the interaction; caspase-9/-3 activity (in words) [11]: induced caspase-9/-3 activity in a dose-dependent manner; IC50 [3]: 140 to 230 nM |
| low affinity | low affinity | high affinity | CCCCCOc1cc(-c2ccc(C(=O)Nc3ccc(C(=O)O)cc3OC(C)CC)c(OCCC(C)C)c2)ccc1C(=O)Nc1ccc(C(=O)O)cc1OCC(C)C (stereo not shown) [Compound 2] | – |
| selectively inhibited only Mcl-1 | – | – | CCC(C)Oc1cc(C(=O)O)ccc1NC(=O)c1ccc(-c2ccc(C(=O)Nc3ccc(C(=O)O)cc3OC(C)CC)c(OC(C)C)c2)cc1OCCC(C)C (stereo not shown) [Compound 23] | red to green fluorescence intensity ratio of JC-1 dye [4]: significantly reduced; disruption of the interaction of Bak with Mcl-1 [5]: selectively inhibited Mcl-1 over Bcl-xL and Bcl-2; IC50 [1]: 160 nM; cell growth inhibition ([6]; Mcl-1 knockdown PC3 cells): 18%; cell growth inhibition ([6]; control-transfected PC3 cells): 62%; cell growth inhibition ([6]; untransfected PC3 cells): 64%; induced caspase activity (in words) ([11]; Mcl-1 knockdown (siRNA) PC3 cells): basal level; caspase-9/-3 activity (in words) [11]: induced caspase-9/-3 activity in a dose-dependent manner; increase in caspase-3/-9 activity ([11]; control-transfected PC3 cells): up to 3 fold; increase in caspase-3/-9 activity ([11]; untransfected PC3 cells): up to 3 fold |
| – | selectivity for Bcl-xL and Bcl-2 | selectivity for Bcl-xL and Bcl-2 | CCC(C)COc1cc(-c2ccc(C(=O)Nc3ccc(C(=O)O)c(OC(C)CC)c3)c(OCCC(C)C)c2)ccc1C(=O)Nc1ccc(C(=O)O)c(OCc2ccccc2)c1 (stereo not shown) [Compound 11] | – |
| complete loss in binding affinities | complete loss in binding affinities | complete loss in binding affinities | CCC(C)COc1cc(-c2ccc(C(=O)Nc3ccc(C(=O)O)cc3OC(C)CC)c(OCCC(C)C)c2)ccc1C(=O)Nc1ccccc1OCc1ccccc1 (stereo not shown) [Compound 9] | – |
| maintaining affinity | lost affinity | maintaining affinity | CCC(C)COc1cc(-c2ccc(C(=O)Nc3ccc(C(=O)O)c(OC(C)CC)c3)c(OCCC(C)C)c2)ccc1C(=O)Nc1ccc(C(=O)O)cc1OCc1ccccc1 (stereo not shown) [Compound 10] | – |
| – | – | affinity only for Bcl-2 | CCOc1cc(C(=O)O)ccc1NC(=O)c1ccc(-c2ccc(C(=O)Nc3ccc(C(=O)O)cc3OCC(C)C)c(OCCc3ccccc3)c2)cc1OCCC(C)C [Compound 7] | – |
| no inhibition | no inhibition | no inhibition | CCCCOc1cc(C(=O)O)ccc1NC(=O)c1ccc(-c2ccc(C(=O)Nc3ccc(C(=O)O)cc3OC(C)CC)c(OCCC(C)C)c2)cc1OCC(C)C (stereo not shown) [Compound 3] | – |
| did not bind | did not bind | did not bind | CCCCCOc1cc(-c2ccc(C(=O)Nc3ccc(C(=O)O)cc3OCc3ccc(F)cc3)c(OCCC(C)C)c2)ccc1C(=O)Nc1ccc(C(=O)O)cc1OCc1ccccc1 [Compound 6] | – |
| significantly lost affinity | significantly lost affinity | significantly lost affinity | CCC(C)COc1cc(-c2ccc(C(=O)Nc3ccc(C(=O)O)cc3OC(C)CC)cc2OCCC(C)C)ccc1C(=O)Nc1ccc(C(=O)O)cc1OCc1ccccc1 (stereo not shown) [Compound 12] | – |

| Compound | binding affinity to Mcl-1 (in words) [1] | binding affinity to Bcl-xL (in words) [2] | binding affinity to Bcl-2 (in words) [3] | further results |
| --- | --- | --- | --- | --- |
| CCC(C)COc1cc(-c2ccc(C(=O)Nc3ccc(C(=O)O)cc3OCC(C)C)c(OCCC(C)C)c2)ccc1C(=O)Nc1ccc(C(=O)O)cc1OCC(C)C (stereo not shown) [Compound 4] | – | – | very selective for inhibiting Bcl-2 over Bcl-xL and Mcl-1 | – |
| CCC(C)COc1cc(-c2ccc(C(=O)Nc3ccc(C(=O)O)cc3OC(C)CC)cc2OCCC(C)C)ccc1C(=O)Nc1ccc(C(=O)O)c(OCc2ccccc2)c1 (stereo not shown) [Compound 13] | – | substantially increased its affinity to Bcl-xL and Bcl-2 compared to Mcl-1 | substantially increased its affinity to Bcl-xL and Bcl-2 compared to Mcl-1 | – |
| CCC(C)COc1cc(-c2ccc(C(=O)Nc3ccc(C(=O)O)cc3OC(C)C)c(OCCC(C)C)c2)ccc1C(=O)Nc1ccc(C(=O)O)cc1OC(C)CC (stereo not shown) [Compound 5] | – | negligible affinity; also recorded: not to Bcl-xL | – | – |
